Tests used:
[1] = tested on: APP/PS1 mice; assay: Alzheimer's animal model (APP/PS1 mice): immunofluorescence, Thioflavin S, Morris Water Maze; type: in vivo, mouse; details: 7-month-old APP/PS1 mice, 5 mg/kg N-acetyl sphingosine, 1 mg/kg FTY720 or 3 uM S1P daily for 4 weeks, intraperitoneal; for microglia (Iba1) in brain cortex vs APP/PS1 mice: FIG. 9a; for astrocytes (GFAP) in brain cortex vs APP/PS1 mice: FIG. 9b; for amount of Aβ / Aβ deposition (Thioflavin S) vs APP/PS1 mice: FIG. 9c; for memory and cognition (Morris Water Maze) vs APP/PS1 mice: FIG. 9d
Text: It has been approved for mouse experiments by the Kyungpook National University Institutional Animal Care and Use Committee (IACUC). A transgenic mouse line overexpressing APPswe (hAPP695swe) or PS1 (presenilin-1M146V) based on C57BL/6 mice (Charles River, UK) was used. [Hereinafter, APP mouse: mouse overexpressing APPswe, PS1 mouse: mouse overexpressing presenilin-1M146V; GlaxoSmithKline]. As an Alzheimer's (AD) animal model, SphK1 tg (SphK1 gene overexpressing mouse) was crossed with APP mice and APP/PS1 mice to prepare APP/PS1/SphK1 tg mice. Niemanpick (NP-C) animal model, Balb/C (Orient, Wild type), NPC mutant mouse lacking NPC1 gene (Provided by Riken, Japan, NP-C mice; less weight than normal mice of the same age, and severe motor function loss from 4 to 6 weeks of age, limb tremors and seizures appear, and lifespan is approximately 9 to 10 weeks. Is) was used. As an animal model for amyotrophic lateral sclerosis (ALS), a transgenic mouse (FUS) line overexpressing RUS R521C based on C57BL/6 mice (Charles River, UK) was used.
After fixing the cerebral and hippocampus of the mouse, anti-20G10 (mouse, 1:1000) against amyloid-β (Aβ) 42 and anti-G30 (rabbit, 1:1000) against Aβ 40, anti-MAP2 (chicken, 1:2000), anti-Synaptophysin (mouse, 1:100), anti-Synapsin1 (rabbit, 1:500), anti-PSD95 (mouse, 1:100), anti-Iba-1 (rabbit, 1:500), Anti-GFAP (rabbit, 1:500) was cultured together. The site was analyzed using a laser scanning confocal microscope or Olympus BX51 microscope equipped with Fluoview SV1000 imaging software (Olympus FV1000, Japan). Metamorph software (Molecular Devices) was used to quantify the percentage of the area of the stained area relative to the area of the total tissue.
In order to confirm the potential effect on learning and memory, MWM (Morris water maze) and fear conditioning experiments were performed. MWM learned the task 4 times a day for 10 days for the mice, the platform was removed on the 11th day, and a probe trial was performed. On the first day of Fear conditioning, the mice were placed in a conditioning chamber, and sound stimulation (10 kHz, 70 dB) and electrical stimulation (0.3 mA, 1 s) were given. On the second day, memory for the space was checked without stimulation in the same conditioning chamber as on the first day, and on the third day, a memory test for fear was performed when only sound stimulation was given in another conditioning chamber. An open field test was performed to evaluate motor ability and immediate activity. In the open field test, the mice were placed in a square box for 10 minutes to measure the overall exercise power, time, and distance.
(§1) In order to measure the neuroinflammatory resolution factor, after culturing neurons from mouse cerebrum, CM was prepared by treatment with 10 nM N-acetyl sphingosine 1 phosphate (Toronto Research chemicals, C262710) and N-acetyl sphingosine (Sigma, 01912). For COX2 acetylation analysis, neurons were cultured from mouse cerebrum and then treated with 2 uCi [^14C]N-acetyl sphingosine (ARC, ARC1024). In addition, for in vivo experiments, 7-month-old APP/PS1 mice were injected with 5 mg/kg N-acetyl sphingosine (Sigma, 01912), 1 mg/kg FTY720 and 3 uM S1P daily for 4 weeks via intraperitoneal injection. 1 month-old NPC mice were injected with 5 mg/kg N-acetyl sphingosine (Sigma, 01912) and 2-month-old FUS mice with 30 mg/kg N-acetyl sphingosine (Sigma, 01912) daily for 4 weeks via subcutaneous injection.
The present inventors confirmed AD lesions by injecting N-acetyl sphingosine, one of the COX2 acetylating agents identified through the above experiment, into an APP/PS1 animal model. First, in order to determine the effect of N-acetyl sphingosine on the neuroinflammatory response by secreting neuroinflammatory resolution factor, changes in microglia and astrocytes were observed. […]

[2] = tested on: APP/PS1 neurons; assay: neuroinflammatory resolution factor (SPMs) secretion in APP/PS1 neurons after COX2 acetylating agent treatment; type: cell-based, mouse; details: 10 nM; FIG. 8b
Procedure: A commercially available ELISA kit (Biosource) was used, and the hemispheres of mice were homogenized and placed in a buffer containing 0.02M guanidine to prepare a sample for Aβ ELISA. In order to measure the neuroinflammatory resolution factor, conditioned media (CM) was prepared after culturing neurons from mouse cerebrum. Thereafter, according to the manufacturer's manual, ELISA for Aβ and SPM was performed.
as §1
First, in order to confirm whether the selected compounds promote the secretion of neuroinflammatory resolution factor in neurons, after treatment with N-acetyl sphingosine 1 phosphate or N-acetyl sphingosine in APP/PS1 neurons, the expression levels of neuroinflammatory resolution factor were confirmed. As a result, it was confirmed that the expression levels of LxA4 and RvE1 in neurons of APP/PS1 mice were recovered when treated with N-acetyl sphingosine 1 phosphate or N-acetyl sphingosine (FIG. 8b).

[3] = target: SphK1 (Homo sapiens, UniProt Q9NYA1); assay: dissociation of acetyl-CoA from the acetyl-CoA:SphK1 complex, equilibrium dialysis; type: binding
[4] = substrate: CC(=O)SCCNC(=O)CCNC(=O)[C@H](O)C(C)(C)COP(=O)(O)OP(=O)(O)OC[C@H]1O[C@@H](n2cnc3c(N)ncnc32)[C@H](O)[C@@H]1OP(=O)(O)O; assay: purified protein, by the assay type; details: other: in the presence of 10 mM sphingosine; [3H]acetyl-CoA; FIG. 1a

Molecule	microglia (Iba1) in brain cortex vs APP/PS1 mice [1]	astrocytes (GFAP) in brain cortex vs APP/PS1 mice [1]	amount of Aβ / Aβ deposition (Thioflavin S) vs APP/PS1 mice [1]	memory and cognition (Morris Water Maze) vs APP/PS1 mice [1]	other results
CCCCCCCCc1ccc(CCC(N)(CO)CO)cc1 [FTY720]	no difference	no difference	no effect	no effect	–
CCCCCCCCCCCCC/C=C/[C@@H](O)[C@H](COP(=O)(O)O)NC(C)=O [N-acetyl sphingosine 1 phosphate]	–	–	–	–	expression level of LxA4 in neurons of APP/PS1 mice [2]: recovered; expression level of RvE1 in neurons of APP/PS1 mice [2]: recovered
CCCCCCCCCCCCC/C=C/[C@@H](O)[C@@H](N)COP(=O)(O)O [S1P, sphingosine-1-phosphate]	no difference	no difference	no effect	no effect	–
CC(=O)SCCNC(=O)CCNC(=O)[C@H](O)C(C)(C)COP(=O)(O)OP(=O)(O)OC[C@H]1O[C@@H](n2cnc3c(N)ncnc32)[C@H](O)[C@@H]1OP(=O)(O)O [acetyl-CoA]	–	–	–	–	Kd [3]: 6.8 µM
SphK1 (Homo sapiens) (protein) MDPAGGPRGVLPRPCRVLVLLNPRGGKGKALQLFRSHVQPLLAEAEISFTLMLTERRNHARELVRSEELGRWDALVVMSGDGLMHEVVNGLMERPDWETAIQKPLCSLPAGSGNALAASLNHYAGYEQVTNEDLLTNCTLLLCRRLLSPMNLLSLHTASGLRLFSVLSLAWGFIADVDLESEKYRRLGEMRFTLGTFLRLAALRTYRGRLAYLPVGRVGSKTPASPVVVQQGPVDAHLVPLEEPVPSHWTVVPDEDFVLVLALLHSHLGSEMFAAPMGRCAAGVMHLFYVRAGVSRAMLLRLFLAMEKGRHMEYECPYLVYVPVVAFRLEPKDGKGVFAVDGELMVSEAVQGQVHPNYFWMVSGCVEPPPSWKPQQMPPPEEPL	–	–	–	–	Km [4]: 58.2 µM; kcat [4]: 0.000308 s⁻¹

— patent US11899025B2, “Pharmaceutical composition for preventing or treating neurodegenerative diseases comprising COX2 acetylating agent as active ingredient” (KYUNGPOOK NATIONAL UNIVERSITY INDUSTRY-ACADEMIC COOPERATION …, priority 2018, dated 2024)
